From patent publication US11504268B2, “Wound treatment system” (Ethicon, Inc., priority 2018, dated 2022)

Tested on: S. aureus
Test: Vapor-phase triclosan delivery to model wound (inoculated Petri dishes), bacterial growth after incubation
Assay type: cell-based
Conditions: for Bacterial Growth after 37° C. incubation; Exposure to wound treatment system: 3 hr / Bacterial Growth after 37° C. incubation; Exposure to wound treatment system: Additional 17 hr: inoculated
Description: The experimental data were obtained with a model air-activated heating elements (7 Hour Hand Warmers, Grabber, Grand Rapids, Mich.) surrounding a model wound represented by inoculated Petri dishes with 5 ml of 45C TSA agar containing about 6 log CFU/ml S. aureus. For testing, from 1 to 8 triclosan strips, each containing 9 mg of triclosan, were positioned on heating elements in proximity to inoculated Petri dishes. The assembly was covered creating an enclosed compartment around the inoculated Petri dishes, with triclosan patches within thusly formed compartment on the heating elements but not in contact with the inoculated Petri dishes. The inoculated Petri dishes were taken out after 3 hr and 17 hour exposure at ambient temperature (of which heating packs provided about 7 hours of heat) and incubated at 37° C. for 24 hr to allow the bacterial colonies, if any, to grow and be evaluated. Controls tested included the same model without any heating elements; heating elements in a system with no triclosan; no heating, no triclosan for confirming inoculation and bacterial growth, no heating no triclosan no inoculation for confirming agar was not contaminated.

Oc1cc(Cl)ccc1Oc1ccc(Cl)cc1Cl [triclosan]
Bacterial Growth after 37° C. incubation; Exposure to wound treatment system: 3 hr (0 heating elements (no heat), 1 triclosan patch, 3 hr exposure): Full growth
Bacterial Growth after 37° C. incubation; Exposure to wound treatment system: Additional 17 hr (0 heating elements (no heat), 1 triclosan patch, 17 hr exposure): Full
Bacterial Growth after 37° C. incubation; Exposure to wound treatment system: 3 hr (0 heating elements (no heat), 2 triclosan patches, 3 hr exposure): Full growth
Bacterial Growth after 37° C. incubation; Exposure to wound treatment system: Additional 17 hr (0 heating elements (no heat), 2 triclosan patches, 17 hr exposure): Full
Bacterial Growth after 37° C. incubation; Exposure to wound treatment system: 3 hr (0 heating elements (no heat), 4 triclosan patches, 3 hr exposure): Partial
Bacterial Growth after 37° C. incubation; Exposure to wound treatment system: Additional 17 hr (0 heating elements (no heat), 4 triclosan patches, 17 hr exposure): Minimal
Bacterial Growth after 37° C. incubation; Exposure to wound treatment system: 3 hr (0 heating elements (no heat), 8 triclosan patches, 3 hr exposure): partial growth
Bacterial Growth after 37° C. incubation; Exposure to wound treatment system: Additional 17 hr (0 heating elements (no heat), 8 triclosan patches, 17 hr exposure): full antibacterial effect and NONE
Bacterial Growth after 37° C. incubation; Exposure to wound treatment system: 3 hr (4 heating elements, 1 triclosan patch, 3 hr exposure): NONE
Bacterial Growth after 37° C. incubation; Exposure to wound treatment system: Additional 17 hr (4 heating elements, 1 triclosan patch, 17 hr exposure): NONE
Bacterial Growth after 37° C. incubation; Exposure to wound treatment system: 3 hr (4 heating elements, 2 triclosan patches, 3 hr exposure (tests 3 and 4)): NONE
Bacterial Growth after 37° C. incubation; Exposure to wound treatment system: Additional 17 hr (4 heating elements, 2 triclosan patches, 17 hr exposure (tests 3 and 4)): NONE
Bacterial Growth after 37° C. incubation; Exposure to wound treatment system: 3 hr (4 heating elements, 4 triclosan patches, 3 hr exposure): NONE
Bacterial Growth after 37° C. incubation; Exposure to wound treatment system: Additional 17 hr (4 heating elements, 4 triclosan patches, 17 hr exposure): NONE
Bacterial Growth after 37° C. incubation; Exposure to wound treatment system: 3 hr (4 heating elements, 8 triclosan patches (9 mg each), 3 hr exposure): NONE
Bacterial Growth after 37° C. incubation; Exposure to wound treatment system: Additional 17 hr (4 heating elements, 8 triclosan patches (9 mg each), 17 hr exposure): NONE
bactericidal effect on S. aureus with vapor transfer of triclosan (in presence of heat elements, 1 strip of triclosan): full bactericidal effect
inhibition of bacterial growth (tests #1-4, 8: 4 heating elements, from 1 to 8 triclosan patches): full inhibition of bacterial growth
antibacterial effect (without heat elements, most tests): lack of antibacterial effect
